The source of these data is article PMC5581131, “The novel sphingosine-1-phosphate receptors antagonist AD2900 affects lymphocyte activation and inhibits T-cell entry into the lymph nodes” (Oncotarget, 2017).

The test system of one assay is human PBMCs. The experiment in a line: 5-day MLR with Et-18-OCH3, BAPTA-AM or 8-bromo-cAMP preincubation, analogues present throughout. The class given is cell-based. As to conditions: 2 μM. As for the experimental part: To determine whether the effect of inhibition of AD2900 on PBMC proliferation is dependent on the same signal transduction pathways, we next examined the capacities of the intracellular Ca^2+ chelator-BAPTA-AM, phosphatidylinositol-specific PLC inhibitor-Et-18-OCH3, and cell-permeate exogenous cAMP-8-bromo-cAMP to alter the suppressive effect of AD2900 and FTY720 on PBMC proliferation. S1P served as a positive control (Figures 2A, 2B, and 2C, respectively). PBMCs were pre-incubated for 1 hour with the inhibitors before the addition of 2 μM AD2900, FTY720, or S1P in the MLR experiment. The inhibitors and the analogues were present in the culture throughout the allogeneic activation. AD2900 suppression of PBMC proliferation was reduced from 59% ± 3% to 32% ± 7% by the exogenous cAMP. BAPTA-AM also partially reversed AD2900 suppression of PBMC proliferation from 59% ± 3% to 32% ± 3%, yet Et-18-OCH3 had no effect (Figure 2A).
Figure 2 Effect of AD2900 on proliferation is dependent on cAMP reduction and calcium signal transduction The effect of Edelfosine (Et-18-OCH3) (Et), BAPTA-AM (BAPTA), or 8-bromo-cAMP (8-b-CAMP) on the inhibition of PBMC proliferation was tested in a 5-day MLR experiment. The cells were incubated with 1 μM Edelfosine, 0.2 μM BAPTA-AM, or 5 μM 8-bromo-cAMP for 1 hour before the addition of sphingolipid analogues, 2 μM AD2900 (AD) (A), FTY720 (FTY) (B), or S1P (C). Significances are compared to AD2900/FTY/S1P without preincubation, respectively. Graphs summarize the results of at least four independent experiments. Results of Student’s t-test: *(P < 0.05, two-tailed test), ** (P < 0.01, two-tailed test).
Human PBLs were collected from human whole blood collected from healthy donors. Subsequently, the cells were centrifuged on a Ficoll-Paque gradient (Fresenius Kabi Norge AS, Oslo, Norway) and were isolated from the interphase layer. For the human MLR experiment, PBMCs from one healthy donor were pretreated for 1 day with AD2900, AD2730, AD2750, YZ297, YZ158, FTY720, or SEW2871. After 24 h, cells were washed and plated at a concentration of 5 × 10^4 cells/well in round bottom 96-well plates containing RPMI-1640 medium Supplemented with 10% human AB serum, 1% penicillin/streptomycin, and 1% l-glutamine (Beit Haemek, Israel). PBMCs from a second donor were irradiated at 3000 γ dosage and added to the plate in a 1:1 ratio with the first donor cells. The cells were cultured for 5 days. For the thymidine incorporation assay, after 4 days of co-culture, cells were pulsed with ^3H-thymidine at 1 μCi (0.037MBq) per well (PerkinElmer, MA, USA) for 16 additional hours and then harvested onto glass-fiber filters. ^3H-thymidine incorporation was measured using Top Count. NXT (PerkinElmer, UK). In other experiments, the supernatant was harvested after 5 days of co-culture for IFN-γ and TNF-α cytokine ELISA measurements (eBioscience, CA, USA). The cells were then collected for assessing apoptosis by FACS in MACSQuant analyzer (Miltenyi Biotech, Germany). In another set of experiments, the PBMCs of two donors were mixed. Sphingolipid analogues were then added to the culture and sustained through the 5 days of the MLR experiment.

The test system of assay [1] is C57BL/6 mice. Briefly: S1P1-positive T-cell population in vivo, FACS. Details: species or system mouse. As to conditions: for increase of S1P1-positive T cells in the blood, of normal expression levels / increase of S1P1 population, spleen T cells / decrease of S1P1 population in the lymph nodes: 2-day treatment. The source says:
(§1) The S1P gradient is a crucial factor for lymphocytes to egress from lymphoid tissues and re-enter the circulation. […] To identify whether the effect of AD2900 on T-cell localization may be mediated by an influence on S1P1 and CCR7 expression, we tested the percentage of S1P1- and CCR7-positive T-cell populations in the blood, spleen, and lymph node in each mouse after a 2-day treatment with AD2900. The percentage of cells expressing S1P1 or CCR7 on their cell surface was detected by FACS analysis and was calculated as % of expressing population in non-treated animals. […] AD2900 elevates the S1P1-expressing population in the blood and spleen, whereas it reduces this population in the lymph nodes. […] In the lymph nodes, the […] population was not affected by AD2900 treatment (Figure 7F).
(§2) Figure 7 The influence of AD2900 on S1P1- and CCR7-positive T-cell populations in blood, spleen, and peripheral lymph nodes C57BL/6 mice were orally administered with 1.8, 2.7, and 3.6 mg/l AD2900 or 1.8 mg/l FTY720 for 2 days, as shown in Figure 4. Leukocytes from blood, spleen, and pLNs were collected and stained with CD3e and S1P1 or CCR7 fluorescent antibodies and then analyzed by FACS analysis. The percentages of S1P1+ CD3e+ T cells from blood (A), spleen (B), and pLNs (C) are shown. The percentages of CCR7+ CD3e+ T cells from blood (D), spleen (E), and pLNs (F) are shown. All the significances are compared to untreated healthy mice. Results summarize at least three independent experiments. Results of Student’s t-test:*(P < 0.05, two-tailed test), ** (P < 0.01, two-tailed test), *** (P < 0.001, two-tailed test), **** (P < 0.0001, two-tailed test).
(§3) C57BL/6 female mice aged 7–8 weeks were obtained from Harlan Laboratories (Jerusalem, Israel). The animal study was conducted under appropriate conditions and was approved by the Institutional Animal Care and Use Committee of the Hebrew University of Jerusalem in accordance with the national laws and regulations for the protection of animals. AD2900 was dissolved in 10% BSA (MP Biomedicals, CA, USA) in DDW at 1 mg/ml and then further diluted in 200 ml water to get final concentrations at 1.8, 2.7, or 3.6 mg/l. AD2900 and FTY720 were supplied ad libitum to the mice for 2 days or 7 days. At the end of the experiment, blood was collected, and the mice were sacrificed and tissues (lymph nodes and spleen) were harvested.

Assay [2] deals with C57BL/6 mice. Briefly: CCR7-positive T-cell population in vivo, FACS. Details: species or system mouse.
Description: as §1, §2
Murine lymphocytes: The phenotype of murine lymphocytes was analyzed by flow cytometry using anti-CD3e-FITC, anti-CD19-PB, anti-CCR7-APC, anti-CD44-FITC, anti-CD62L-APC, and anti-TCR-β-PB (Biolegend, CA, USA).
as §3

As to `CCCCCCCCCCCCCCCCNC(CO)(CO)CO` [AD2900], the “suppression of PBMC proliferation” value in the assay on human PBMCs (present throughout MLR, without preincubation) is 59% ± 3%. For the same molecule, in the assay on human PBMCs (1 hour preincubation with 0.2 μM BAPTA-AM), the “suppression of PBMC proliferation with BAPTA-AM” value was 32% ± 3%. Further, in the assay on human PBMCs (1 hour preincubation with 1 μM Et-18-OCH3), the “effect of Et-18-OCH3 on suppression of PBMC proliferation” value is listed as “no effect”. Besides, the “suppression of PBMC proliferation with exogenous cAMP” value in the assay on human PBMCs (1 hour preincubation with 5 μM 8-bromo-cAMP) was 32% ± 7%. The “increase of S1P1-positive T cells in the blood, of normal expression levels” value in the assay on C57BL/6 mice [1] (1.8 mg/l) is listed as 20% ± 4%; with C57BL/6 mice [1] (2.7 mg/l), 16% ± 5%; in the assay with C57BL/6 mice [1] (3.6 mg/l), 18% ± 4%. Besides, the “increase of S1P1 population, spleen T cells” value was 12% ± 5% in the assay on C57BL/6 mice [1] (1.8 mg/l) and 31% ± 5% with C57BL/6 mice [1] (2.7 mg/l). The “decrease of S1P1 population in the lymph nodes” value in the assay on C57BL/6 mice [1] (2.7 mg/l) was 12% ± 3%; with C57BL/6 mice [1] (3.6 mg/l), 18% ± 11%. For the same molecule, the “decrease of CCR7-positive T cells in the blood, of the normal expression levels” value with C57BL/6 mice [2] (1.8 mg/l, 2-day treatment) is 21% ± 5%; with C57BL/6 mice [2] (2.7 mg/l, 2-day treatment) it was 15% ± 4%. In addition, in the assay on C57BL/6 mice [2] (3.6 mg/l (highest dose), 2-day treatment), the “decrease of the S1P1 population, spleen T cells (Figure 7E)” value is reported as 12% ± 4%. The “S1P1 population in the lymph nodes (Figure 7F)” value with C57BL/6 mice [2] (2-day treatment) is “not affected”.

Regarding `CCCCCCCCc1ccc(CCC(N)(CO)CO)cc1` [FTY720, Fingolimod, reference compound], in the assay with human PBMCs (1 hour preincubation with the inhibitors), the “effect of Et-18-OCH3, BAPTA-AM and 8-bromo-cAMP on suppression of PBMC proliferation” value is on record as “not nullified by any of these interventions”. The “effects on the S1P1 population in murine blood, spleen, and lymph nodes” value in the assay on C57BL/6 mice [1] (1.8 mg/l, 2 days) is listed as “did not demonstrate any effects”. Moreover, in the assay with C57BL/6 mice [2] (1.8 mg/l, 2 days), the “reduction of the CCR7 population in murine blood, spleen, and lymph nodes” value is 15%–20%.
